The values that follow come from publication PMC9543091, “A bacterial chemoreceptor that mediates chemotaxis to two different plant hormones” (Environmental Microbiology, 2022).

Experiment [1] concerns the target T1, PcpI (Pseudomonas putida, UniProt A0A4D6XHR0).
T1 construct: gene E6B08_28110; LBD (amino acids 38–174)
T1 sequence (A0A4D6XHR0 38-174): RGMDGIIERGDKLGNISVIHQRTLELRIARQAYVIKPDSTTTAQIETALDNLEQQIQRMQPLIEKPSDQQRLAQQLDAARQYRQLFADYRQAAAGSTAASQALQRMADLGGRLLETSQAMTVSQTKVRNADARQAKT
Nature of the experiment: isothermal titration calorimetry. In kind it is binding. (In ITC the heat of successive injections is recorded.)

For experiment [2], the target named is T2, E6B08_RS28125 (solute binding protein).
T2 construct: recombinant from pET28b(+), without the predicted signal peptide
Kind of experiment: isothermal titration calorimetry (and DSF). Also on record: species or system Pseudomonas putida.

Experiment [3] has as its target T1, PcpI. Kind of experiment: isothermal titration calorimetry; DSF Tm shift […]°C. The experiment is classed as binding. An excerpt: Exothermic heats were observed that decreased as protein saturation progressed

On to `Cc1cccc(C(=O)O)c1` [3-methylbenzoate], for which the dissociation constant Kd on PcpI [1] (read-out: Kd) was 91 ± 8 µM.

On to `N=C(N)NCCC[C@H](N)C(=O)O` [L-Arg], for which, in experiment [2], the dissociation constant Kd stood at 29.5 ± 3 µM.

In experiment [2], `N[C@@H](Cc1c[nH]cn1)C(=O)O` [L-His] yielded a Kd of 3.3 ± 0.3 µM.

`NCCC[C@H](N)C(=O)O` [L-ornithine] registered an equilibrium dissociation constant (Kd) in experiment [2] of 0.9 ± 0.1 µM.

As to `O=C(O)c1ccccc1` [benzoate], the equilibrium dissociation constant (Kd) on PcpI [1] turned out to be 171 ± 14 µM.

Take `O=C(O)c1ccccc1O` [salicylate]: the Kd at PcpI [3] came out at 826 ± 34 µM.

In general, Kd refers to the constant that tells how readily two partners part at equilibrium.
